Target: T1, Rhizopuspepsin (Rhizopus microsporus var. chinensis, UniProt P06026)
T1 sequence (P06026 whole entry): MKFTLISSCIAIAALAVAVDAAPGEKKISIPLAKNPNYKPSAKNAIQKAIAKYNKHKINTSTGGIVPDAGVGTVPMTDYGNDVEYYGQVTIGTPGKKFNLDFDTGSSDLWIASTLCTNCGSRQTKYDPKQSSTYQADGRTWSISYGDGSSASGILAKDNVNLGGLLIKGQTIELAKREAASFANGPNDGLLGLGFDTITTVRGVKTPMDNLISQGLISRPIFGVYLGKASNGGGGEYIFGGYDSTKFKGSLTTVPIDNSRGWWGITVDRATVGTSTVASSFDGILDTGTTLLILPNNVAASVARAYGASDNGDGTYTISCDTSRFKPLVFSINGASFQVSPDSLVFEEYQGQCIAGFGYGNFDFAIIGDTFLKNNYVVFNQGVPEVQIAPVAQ
Assay: Inhibition of Rhizopus chinensis pepsin using fluorescence assay

Row | Compound | Ki
1 | CC(C)[C@H]1NC(=O)[C@H](NC(=O)OC(C)(C)C)CCC/C=C\CCC[C@H](CO)NC1=O | 336 nM
2 | CC(C)[C@H]1NC(=O)[C@H](NC(=O)OC(C)(C)C)CCCCCCCC[C@H](CO)NC1=O | 1.31 nM

Reference: ChEMBL document CHEMBL1130747, “Synthesis of novel cyclic protease inhibitors using Grubbs olefin metathesis” (Bioorg Med Chem Lett, 1998)
